PMC9865890, “N-Derivatives of (Z)-Methyl 3-(4-Oxo-2-thioxothiazolidin-5-ylidene)methyl)-1H-indole-2-carboxylates as Antimicrobial Agents—In Silico and In Vitro Evaluation” (Pharmaceuticals, 2023)
Converted amounts (≈) assume the structure as drawn. Where two headings read alike, the source gives them in different places.

Assays:
[1] = system: Penicillium verrucosum var. cyclopium (food isolate); experiment: Antifungal bioassay (MIC/MFC); assay type: cell-based
Protocol: For the antifungal bioassays, six fungi were used: Aspergillus niger (ATCC 6275), Aspergillus fumigatus (ATCC 1022), Aspergillus versicolor (ATCC 11730), Penicillium funiculosum (ATCC 36839), Trichoderma viride (IAM 5061), and Penicillium verrucosum var. cyclopium (food isolate). The organisms were obtained from the Mycological Laboratory, Department of Plant Physiology, Institute for Biological Research “Siniša Stankovic”, Belgrade, Serbia. All experiments were performed in duplicate.

[2] = system: Enterobacter cloacae (clinical isolate); experiment: Antibacterial microdilution (MIC/MBC); assay type: cell-based; details: Enterobacter cloacae, En.cl (En. cloacae); for MIC: read-out: MIC
Protocol: (§1) The synthesized compounds (Table 1) were evaluated for their antibacterial activity against a panel of eight species using a microdilution method with ampicillin and streptomycin as reference drugs. […] The order of activity can be presented as: 8 > 11 > 2 > 1 > 12 > 3 > 17 > 7 > 5 > 13 > 14 > 16 > 9 > 4 = 6 > 15 > 10. […] Cloacae. […] The most sensitive bacteria appeared to be En. cloacae, while E. coli was the most resistant one, followed by M. flavus.
(§2) The following Gram-negative bacteria: Escherichia coli (ATCC 35210), Enterobacter cloacae (clinical isolate), Salmonella typhimurium (ATCC 13311), as well as Gram-positive bacteria: Listeria monocytogenes (NCTC 7973), Bacillus cereus (clinical isolate), and Staphylococcus aureus (ATCC 6538) were used. The organisms were obtained from the Mycological Laboratory, Department of Plant Physiology, Institute for Biological Research “Siniša Stankovic”, Belgrade, Serbia. The minimum inhibitory (MIC) and minimum bactericidal (MBC) concentrations were determined by the modified microdilution method, as previously reported.

[3] = system: Listeria monocytogenes (NCTC 7973); experiment: Antibacterial microdilution (MIC/MBC); assay type: cell-based; details: Listeria monocytogenes, NCTC7973, L.m. (L. monocytogenes); for MIC: read-out: MIC
Protocol: as §1, §2

P. aeruginosa = experiment: Antibacterial microdilution (MIC/MBC); assay type: cell-based; details: Pseudomonas aeruginosa, P.a. (P. aeruginosa); for MIC: read-out: MIC
Protocol: as §1, §2

[4] = system: Escherichia coli (ATCC 35210); experiment: Antibacterial microdilution (MIC/MBC); assay type: cell-based; details: Escherichia coli, ATCC35210, E. coli; for MIC: read-out: MIC
Protocol: as §1, §2

[5] = system: Bacillus cereus (clinical isolate); experiment: Antibacterial microdilution (MIC/MBC); assay type: cell-based; details: B.c. (B. cereus)
Protocol: as §1, §2

[6] = system: Salmonella typhimurium (ATCC 13311); experiment: Antibacterial microdilution (MIC/MBC); assay type: cell-based; details: S.t. (S. typhimurium)
Protocol: as §1, §2

M. flavus = experiment: Antibacterial microdilution (MIC/MBC); assay type: cell-based; details: Micrococcus flavus; M.f. (M. flavus)
Protocol: as §1, §2

[7] = system: Staphylococcus aureus (ATCC 6538); experiment: Antibacterial microdilution (MIC/MBC); assay type: cell-based; details: S.a. (S. aureus)
Protocol: as §1, §2

P. ochrochloron = experiment: Antifungal bioassay (MIC/MFC); assay type: cell-based; details: for MFC: P.o. (P. ochrochloron); for MIC: P.o. (P. ochrochloron; text: P. ochramensis)
Protocol: (§3) For the antifungal bioassays, six fungi were used: […] The organisms were obtained from the Mycological Laboratory, Department of Plant Physiology, Institute for Biological Research “Siniša Stankovic”, Belgrade, Serbia. All experiments were performed in duplicate.

[8] = system: Aspergillus fumigatus (ATCC 1022); experiment: Antifungal bioassay (MIC/MFC); assay type: cell-based; details: ATCC1022, A.f. (A. fumigatus)
Protocol: as §3

[9] = system: Penicillium funiculosum (ATCC 36839); experiment: Antifungal bioassay (MIC/MFC); assay type: cell-based; details: Talaromyces funiculosus, ATCC36839; P.f. (P. funiculosum)
Protocol: as §3

A. ochraceus = experiment: Antifungal bioassay (MIC/MFC); assay type: cell-based; details: Aspergillus ochraceus, A.o. (A. ochraceus); for MIC: read-out: MIC
Protocol: as §3

[10] = system: Trichoderma viride (IAM 5061); experiment: Antifungal bioassay (MIC/MFC); assay type: cell-based; details: T.v. (T. viride)
Protocol: as §3

[11] = system: Aspergillus versicolor (ATCC 11730); experiment: Antifungal bioassay (MIC/MFC); assay type: cell-based; details: ATCC11730, A.v. (A. versicolor)
Protocol: as §3

[12] = system: Aspergillus niger (ATCC 6275); experiment: Antifungal bioassay (MIC/MFC); assay type: cell-based; details: ATCC6275, A.n. (A. niger)
Protocol: as §3

[13] = Salmonella enterica, read-out: MIC
[14] = Staphylococcus aureus, ATCC6538
[15] = Staphylococcus aureus, ATCC6538, read-out: MIC
[16] = Penicillium ochrochloron, read-out: MIC
[17] = Trichoderma viride, IAM5061, read-out: MIC

| SMILES | MFC [1] [µg/mL] | MIC [1] [µg/mL] | MBC [2] [µg/mL] | MIC [2] [µg/mL] | MBC [3] [µg/mL] | MIC [3] [µg/mL] | MBC (P. aeruginosa) [µg/mL] | MIC (P. aeruginosa) [µg/mL] | MBC [4] [µg/mL] | MIC [4] [µg/mL] | MBC ([5]; Bacillus cereus) [µg/mL] | MIC ([5]; Bacillus cereus, read-out: MIC) [µg/mL] | MBC ([6]; Salmonella enterica) [µg/mL] | MIC [6, 13] [µg/mL] | MBC (M. flavus) [µg/mL] | MIC (M. flavus) [µg/mL] | MBC [7, 14] [µg/mL] | MIC [7, 15] [µg/mL] | MFC (P. ochrochloron; Penicillium ochrochloron) [µg/mL] | MIC (P. ochrochloron; [16]) [µg/mL] | also measured |
| --- | --- | --- | --- | --- | --- | --- | --- | --- | --- | --- | --- | --- | --- | --- | --- | --- | --- | --- | --- | --- | --- |
| COC(=O)c1[nH]c2ccccc2c1/C=C1\SC(=S)N(c2cccc(O)c2)C1=O [Compound 3, (Z)-methyl 3-((3-(3-hydroxyphenyl)-4-oxo-2-thioxothiazolidin-5-ylidene)methyl)-1H-indole-2-carboxylate] | 30 ± 10 (≈ 73.1 µM) | 15 ± 3 (≈ 36.5 µM) | 30 ± 10 (≈ 73.1 µM) | 15 ± 9 (≈ 36.5 µM) | 60 ± 6 (≈ 146 µM) | 30 ± 10 (≈ 73.1 µM) | 60 ± 6 (≈ 146 µM) | 30 ± 10 (≈ 73.1 µM) | 30 ± 10 (≈ 73.1 µM) | 22 ± 5 (≈ 53.6 µM) | 30 ± 10 (≈ 73.1 µM) | 15 (≈ 36.5 µM) | 30 ± 10 (≈ 73.1 µM) | 15 (≈ 36.5 µM) | 60 ± 6 (≈ 146 µM) | 45 ± 3 (≈ 110 µM) | 30 ± 10 (≈ 73.1 µM) | 15 (≈ 36.5 µM) | 15 ± 3 (≈ 36.5 µM) | 8 ± 0.6 (≈ 19.5 µM) | MIC [5]: 15 ± 9 µg/mL (≈ 36.5 µM); MIC [6]: 15 ± 9 µg/mL (≈ 36.5 µM); MIC [7]: 15 ± 9 µg/mL (≈ 36.5 µM); MFC [8]: 60 ± 6 µg/mL (≈ 146 µM); MIC [8]: 30 ± 10 µg/mL (≈ 73.1 µM); MFC [9]: 15 ± 3 µg/mL (≈ 36.5 µM); MIC [9]: 8 ± 0.6 µg/mL (≈ 19.5 µM); MFC (A. ochraceus): 15 ± 3 µg/mL (≈ 36.5 µM); MIC (A. ochraceus): 8 ± 0.6 µg/mL (≈ 19.5 µM); MIC [10]: 4 ± 1 µg/mL (≈ 9.74 µM); MFC ([10]; Trichoderma viride, IAM5061): 8 ± 0.6 µg/mL (≈ 19.5 µM); MIC [10, 17]: 4 µg/mL (≈ 9.74 µM); MFC [11]: 15 ± 3 µg/mL (≈ 36.5 µM); MIC [11]: 8 ± 0.6 µg/mL (≈ 19.5 µM); melting point: 245 to 247 °C |
| COC(=O)c1[nH]c2ccccc2c1/C=C1\SC(=S)N(N2CCOCC2)C1=O [Compound 6, (Z)-methyl 3-((3-morpholino-4-oxo-2-thioxothiazolidin-5-ylidene)methyl)-1H-indole-2-carboxylate] | 30 ± 10 (≈ 74.4 µM) | 15 ± 3 (≈ 37.2 µM) | 30 ± 10 (≈ 74.4 µM) | 15 ± 9 (≈ 37.2 µM) | 60 ± 6 (≈ 149 µM) | 30 ± 10 (≈ 74.4 µM) | 60 ± 6 (≈ 149 µM) | 30 ± 10 (≈ 74.4 µM) | 120 ± 10 (≈ 297 µM) | 60 ± 6 (≈ 149 µM) | 60 ± 6 (≈ 149 µM) | 30 ± 10 (≈ 74.4 µM) | 60 ± 6 (≈ 149 µM) | 30 ± 10 (≈ 74.4 µM) | 60 ± 6 (≈ 149 µM) | 45 ± 3 (≈ 112 µM) | 30 ± 10 (≈ 74.4 µM) | 15 (≈ 37.2 µM) | 15 ± 3 (≈ 37.2 µM) | 8 (≈ 19.8 µM) | MIC [7]: 15 ± 9 µg/mL (≈ 37.2 µM); MIC (P. ochrochloron): 8 ± 0.6 µg/mL (≈ 19.8 µM); MFC [8]: 120 ± 40 µg/mL (≈ 297 µM); MIC [8]: 60 ± 6 µg/mL (≈ 149 µM); MFC [9]: 30 ± 10 µg/mL (≈ 74.4 µM); MIC [9]: 15 ± 3 µg/mL (≈ 37.2 µM); MFC (A. ochraceus): 15 ± 3 µg/mL (≈ 37.2 µM); MIC (A. ochraceus): 8 ± 0.6 µg/mL (≈ 19.8 µM); MIC [10]: 8 ± 0.6 µg/mL (≈ 19.8 µM); MFC ([10]; Trichoderma viride, IAM5061): 15 ± 3 µg/mL (≈ 37.2 µM); MIC [10, 17]: 8 µg/mL (≈ 19.8 µM); MFC [11]: 15 ± 3 µg/mL (≈ 37.2 µM); MIC [11]: 8 ± 0.6 µg/mL (≈ 19.8 µM); melting point: 278 to 280 °C |
| COC(=O)c1[nH]c2cc(OC)ccc2c1/C=C1\SC(=S)N(c2cccc(F)c2)C1=O [Compound 13, (Z)-methyl 3-((3-(3-fluorophenyl)-4-oxo-2-thioxothiazolidin-5-ylidene)methyl)-6-methoxy-1H-indole-2-carboxylate] | 30 ± 10 (≈ 67.8 µM) | 15 ± 3 (≈ 33.9 µM) | 30 ± 10 (≈ 67.8 µM) | 15 ± 9 (≈ 33.9 µM) | 60 ± 6 (≈ 136 µM) | 30 ± 10 (≈ 67.8 µM) | 60 ± 6 (≈ 136 µM) | 30 ± 10 (≈ 67.8 µM) | 60 ± 6 (≈ 136 µM) | 45 ± 3 (≈ 102 µM) | 60 ± 6 (≈ 136 µM) | 30 ± 10 (≈ 67.8 µM) | 60 ± 6 (≈ 136 µM) | 30 ± 10 (≈ 67.8 µM) | 60 ± 6 (≈ 136 µM) | 45 ± 3 (≈ 102 µM) | 30 ± 10 (≈ 67.8 µM) | 15 ± 9 (≈ 33.9 µM) | 30 ± 10 (≈ 67.8 µM) | 15 ± 3 (≈ 33.9 µM) | MFC [12]: 30 ± 10 µg/mL (≈ 67.8 µM); MIC [12]: 15 ± 3 µg/mL (≈ 33.9 µM); MFC [8]: 120 ± 40 µg/mL (≈ 271 µM); MIC [8]: 60 ± 6 µg/mL (≈ 136 µM); MFC [9]: 30 ± 10 µg/mL (≈ 67.8 µM); MIC [9]: 15 ± 3 µg/mL (≈ 33.9 µM); MFC (A. ochraceus): 15 ± 3 µg/mL (≈ 33.9 µM); MIC (A. ochraceus): 8 ± 0.6 µg/mL (≈ 18.1 µM); MFC [11]: 30 ± 10 µg/mL (≈ 67.8 µM); MIC [11]: 15 ± 3 µg/mL (≈ 33.9 µM); melting point: 238 to 240 °C |
| COC(=O)c1[nH]c2ccc(F)cc2c1/C=C1\SC(=S)N(CCC(=O)O)C1=O [Compound 14, (Z)-3-(5-((5-fluoro-2-(methoxycarbonyl)-1H-indol-3-yl)methylene)-4-oxo-2-thioxothiazolidin-3-yl)propanoic acid] | 30 ± 10 (≈ 73.5 µM) | 15 ± 3 (≈ 36.7 µM) | 30 ± 10 (≈ 73.5 µM) | 15 ± 9 (≈ 36.7 µM) | 60 ± 6 (≈ 147 µM) | 45 ± 3 (≈ 110 µM) | 30 ± 10 (≈ 73.5 µM) | 15 ± 9 (≈ 36.7 µM) | 60 ± 6 (≈ 147 µM) | 45 ± 3 (≈ 110 µM) | 60 ± 6 (≈ 147 µM) | 30 ± 10 (≈ 73.5 µM) | 60 ± 6 (≈ 147 µM) | 45 ± 3 (≈ 110 µM) | 60 ± 6 (≈ 147 µM) | 45 ± 3 (≈ 110 µM) | 60 ± 6 (≈ 147 µM) | 30 ± 10 (≈ 73.5 µM) | 30 ± 10 (≈ 73.5 µM) | 15 ± 3 (≈ 36.7 µM) | MFC [12]: 30 ± 10 µg/mL (≈ 73.5 µM); MIC [12]: 15 ± 3 µg/mL (≈ 36.7 µM); MFC [8]: 120 ± 40 µg/mL (≈ 294 µM); MIC [8]: 60 ± 6 µg/mL (≈ 147 µM); MFC [9]: 30 ± 10 µg/mL (≈ 73.5 µM); MIC [9]: 15 ± 3 µg/mL (≈ 36.7 µM); MFC (A. ochraceus): 30 ± 10 µg/mL (≈ 73.5 µM); MIC (A. ochraceus): 15 ± 3 µg/mL (≈ 36.7 µM); MFC [11]: 30 ± 10 µg/mL (≈ 73.5 µM); MIC [11]: 15 ± 3 µg/mL (≈ 36.7 µM); melting point: 275 to 276 °C |
